Reference: ChEMBL document CHEMBL1126535, “Angiotensin II receptor antagonists containing a phenylpyridine element” (Bioorg Med Chem Lett, 1993)

Assays:
[1] = molecular target: T1, Type-2 angiotensin II receptor (Rattus norvegicus, UniProt P35351); experiment: In vitro binding affinity towards Angiotensin II receptor, type 2 determined as its ability to displace 125I-Sarl,Ile8-AII from the receptor expressed in rat midbrain membrane.; format: cell membranes
T1 sequence (P35351 whole entry): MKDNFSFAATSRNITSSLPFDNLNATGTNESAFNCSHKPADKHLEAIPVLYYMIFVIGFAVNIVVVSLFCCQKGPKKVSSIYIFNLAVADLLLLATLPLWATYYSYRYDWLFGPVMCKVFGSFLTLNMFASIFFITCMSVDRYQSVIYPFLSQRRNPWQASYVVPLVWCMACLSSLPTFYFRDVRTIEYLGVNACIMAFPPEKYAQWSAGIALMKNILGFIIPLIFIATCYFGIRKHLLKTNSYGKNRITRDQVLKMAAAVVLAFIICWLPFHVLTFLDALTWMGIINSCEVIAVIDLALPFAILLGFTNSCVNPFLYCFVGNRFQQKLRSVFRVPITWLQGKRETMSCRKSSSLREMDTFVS

[2] = molecular target: T2, Type-1 angiotensin II receptor (Oryctolagus cuniculus, UniProt P34976); experiment: In vitro binding affinity towards Angiotensin II type 1-AT1 receptor determined as its ability to displace 125I-Sarl,Ile8-AII from the receptor expressed in rabbit aorta membrane.; format: cell membranes
T2 sequence (P34976 whole entry): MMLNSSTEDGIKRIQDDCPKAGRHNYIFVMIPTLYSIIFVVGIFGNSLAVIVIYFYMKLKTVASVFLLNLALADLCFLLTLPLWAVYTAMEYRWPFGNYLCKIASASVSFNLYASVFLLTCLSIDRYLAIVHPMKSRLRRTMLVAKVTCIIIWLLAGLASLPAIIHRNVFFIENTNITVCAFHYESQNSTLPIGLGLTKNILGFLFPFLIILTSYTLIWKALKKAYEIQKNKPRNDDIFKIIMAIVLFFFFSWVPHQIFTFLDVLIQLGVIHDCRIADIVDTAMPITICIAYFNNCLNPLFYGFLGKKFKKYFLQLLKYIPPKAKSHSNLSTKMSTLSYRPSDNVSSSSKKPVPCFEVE

Rattus norvegicus = experiment: In vivo potency for the inhibition of pressor response in normotensive rats (i.v.); format: functional

CCCc1nc2c(C)ccnc2n1Cc1ccc(-c2ncccc2-c2nn[nH]n2)cc1 gave an IC50 [1] of over 20000 nM.

In the case of CCCc1nc2c(C)ccnc2n1Cc1ccc(-c2ccncc2-c2nn[nH]n2)cc1, the IC50 [2] is reported as 4 nM, the Activity (Rattus norvegicus) is reported as 0.1 mg/kg and the IC50 [1] is reported as over 20000 nM.

Compound CCCc1nc2c(C)ccnc2n1Cc1ccc(-c2ccccc2-c2nn[nH]n2)cc1 has an IC50 [2] of 1 nM.

For CCc1nc2c(C)cc(C)nc2n1Cc1ccc(-c2ccccc2-c2nnn[nH]2)cc1 [L-158809], the IC50 [1] was over 20000 nM.

CCCc1nc2c(C)ccnc2n1Cc1ccc(-c2cccnc2-c2nn[nH]n2)cc1 showed an IC50 [2] of 60 nM and an IC50 [1] of over 20000 nM.
